How the values were obtained:
[1] = Human microsome stability assay; conditions: 1 μM compound, 0.5 mg/mL liver microsomal protein, 1 mM NADPH, 37° C., 0-30 minutes
[2] = biological target: T1, recombinant human Myt1 (full length PKMYT1) (Homo sapiens, UniProt Q99640); assay: ADP-Glo assay (Myt1 kinase activity)
T1 sequence (Q99640 1-499): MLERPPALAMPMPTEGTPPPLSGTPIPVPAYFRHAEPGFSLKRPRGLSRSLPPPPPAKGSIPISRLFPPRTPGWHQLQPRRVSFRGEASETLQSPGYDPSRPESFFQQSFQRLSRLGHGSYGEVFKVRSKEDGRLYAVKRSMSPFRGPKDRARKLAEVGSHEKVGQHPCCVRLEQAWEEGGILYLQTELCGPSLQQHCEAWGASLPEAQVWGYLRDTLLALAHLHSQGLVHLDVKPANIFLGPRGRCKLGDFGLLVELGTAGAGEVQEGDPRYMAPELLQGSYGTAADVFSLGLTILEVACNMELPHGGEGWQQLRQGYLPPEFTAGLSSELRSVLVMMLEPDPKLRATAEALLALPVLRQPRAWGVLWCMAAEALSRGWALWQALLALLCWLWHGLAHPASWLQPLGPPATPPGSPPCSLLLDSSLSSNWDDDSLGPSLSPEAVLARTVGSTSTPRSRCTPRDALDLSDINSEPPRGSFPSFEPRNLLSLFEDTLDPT

| SMILES | Clearance of Human microsome [1] | IC50 [2] |
| --- | --- | --- |
| Cc1cc2[nH]c(=O)c(N)c(-c3ccc(F)c4[nH]ncc34)c2nc1N1CCNCC1 [Example 044, 3-Amino-4-(7-fluoro-1H-indazol-4-yl)-7-methyl-6-piperazin-1-yl-1H-1,5-naphthyridin-2-one] | 6.15 mL/min/kg | – |
| Nc1c(-c2ccc(F)c3[nH]ncc23)c2nccc(Cl)c2[nH]c1=O [Example 050, 3-Amino-8-chloro-4-(7-fluoro-1H-indazol-4-yl)-1H-1,5-naphthyridin-2-one] | 6.15 mL/min/kg | – |
| COc1c(C)cnc2c(-c3ccc(F)c4[nH]ncc34)c(N)c(=O)[nH]c12 [Example 051, 3-Amino-4-(7-fluoro-1H-indazol-4-yl)-8-methoxy-7-methyl-1H-1,5-naphthyridin-2-one] | 6.15 mL/min/kg | – |
| Cc1cnc2c(-c3ccc(F)c4[nH]ncc34)c(N)c(=O)[nH]c2c1Cl [Example 053, 3-Amino-8-chloro-4-(7-fluoro-1H-indazol-4-yl)-7-methyl-1H-1,5-naphthyridin-2-one] | 8.09 mL/min/kg | – |
| Cc1nc2c(-c3ccc(F)c4[nH]ncc34)c(N)c(=O)[nH]c2c(C)c1Cl [Example 056, 3-Amino-7-chloro-4-(7-fluoro-1H-indazol-4-yl)-6,8-dimethyl-1H-1,5-naphthyridin-2-one] | 7.47 mL/min/kg | – |
| CCOC(=O)COc1nc2c(-c3ccc(F)c4[nH]ncc34)c(N)c(=O)[nH]c2cc1C [Example 061, Ethyl 2-[[7-amino-8-(7-fluoro-1H-indazol-4-yl)-3-methyl-6-oxo-5H-1,5-naphthyridin-2-yl]oxy]acetate] | 6.15 mL/min/kg | 17.7 nM |
| Cc1cc2[nH]c(=O)c(N)c(-c3ccc(F)c4[nH]ncc34)c2nc1C1CCNCC1 [Example 069, 3-Amino-4-(7-fluoro-1H-indazol-4-yl)-7-methyl-6-(4-piperidyl)-1H-1,5-naphthyridin-2-one] | 7.78 mL/min/kg | 10.9 nM |
| Cc1cc2[nH]c(=O)c(N)c(-c3ccc(F)c4[nH]ncc34)c2nc1C#CC1COCC1O (stereo not drawn) [Example 073, 3-Amino-4-(7-fluoro-1H-indazol-4-yl)-6-[2-(4-hydroxytetrahydrofuran-3-yl)ethynyl]-7-methyl-1H-1,5-naphthyridin-2-one] | 6.15 mL/min/kg | 14 nM |
| Cc1cc2[nH]c(=O)c(N)c(-c3ccc(F)c4[nH]ncc34)c2nc1C#CC(C)O (stereo not drawn) [Example 074, 3-Amino-4-(7-fluoro-1H-indazol-4-yl)-6-(3-hydroxybut-1-ynyl)-7-methyl-1H-1,5-naphthyridin-2-one] | 6.15 mL/min/kg | 11 nM |
| Cc1cc2[nH]c(=O)c(N)c(-c3ccc(F)c4[nH]ncc34)c2nc1C#CCN1CCOCC1 [Example 076, 3-Amino-4-(7-fluoro-1H-indazol-4-yl)-7-methyl-6-(3-morpholinoprop-1-ynyl)-1H-1,5-naphthyridin-2-one] | 8.12 mL/min/kg | 14.8 nM |
| Cc1cc2[nH]c(=O)c(N)c(-c3ccc(F)c4[nH]ncc34)c2nc1C1CCN(C)CC1 [Example 082, 3-Amino-4-(7-fluoro-1H-indazol-4-yl)-7-methyl-6-(1-methyl-4-piperidyl)-1H-1,5-naphthyridin-2-one] | 6.15 mL/min/kg | 16.4 nM |
| Cc1nc(C)c2[nH]c(=O)c(N)c(-c3ccc(F)c4[nH]ncc34)c2n1 [Example 084, 7-Amino-8-(7-fluoro-1H-indazol-4-yl)-2,4-dimethyl-5H-pyrido[3,2-d]pyrimidin-6-one] | 6.15 mL/min/kg | < 10 nM |
| Cc1cc2[nH]c(=O)c(N)c(-c3ccc(F)c4[nH]ncc34)c2nc1C(=O)O [Example 089, 7-Amino-8-(7-fluoro-1H-indazol-4-yl)-3-methyl-6-oxo-5H-1,5-naphthyridine-2-carboxylic acid] | 6.15 mL/min/kg | – |
| Cc1cc(Cl)c2[nH]c(=O)c(N)c(-c3ccc(F)c4[nH]ncc34)c2n1 [Example 090, 3-Amino-8-chloro-4-(7-fluoro-1H-indazol-4-yl)-6-methyl-1H-1,5-naphthyridin-2-one] | 6.15 mL/min/kg | 13 nM |
| Cc1cc(Cl)nc2c(-c3ccc(F)c4[nH]ncc34)c(N)c(=O)[nH]c12 [Example 091, 3-Amino-6-chloro-4-(7-fluoro-1H-indazol-4-yl)-8-methyl-1H-1,5-naphthyridin-2-one] | 6.15 mL/min/kg | 14 nM |
| Cc1cc2[nH]c(=O)c(N)c(-c3ccc(F)c4[nH]ncc34)c2nc1C#N [Example 092, 7-Amino-8-(7-fluoro-1H-indazol-4-yl)-3-methyl-6-oxo-5H-1,5-naphthyridine-2-carbonitrile] | 6.15 mL/min/kg | 14.4 nM |
| Cc1cc2[nH]c(=O)c(N)c(-c3ccc(F)c4[nH]ncc34)c2nc1C1CN(C)C1 [Example 098, 3-Amino-4-(7-fluoro-1H-indazol-4-yl)-7-methyl-6-(1-methylazetidin-3-yl)-1H-1,5-naphthyridin-2-one] | 7.72 mL/min/kg | 18.7 nM |
| Cc1cc2c(-c3ccc(F)c4[nH]ncc34)c(N)c(=O)[nH]c2nc1C [Example 107, 3-Amino-4-(7-fluoro-1H-indazol-4-yl)-6,7-dimethyl-1H-1,8-naphthyridin-2-one] | 7.13 mL/min/kg | 22.3 nM |
| Cc1nc2c(-c3ccc(F)c4[nH]ncc34)c(N)c(=O)[nH]c2c(C)c1C [Example 110, 3-Amino-4-(7-fluoro-1H-indazol-4-yl)-6,7,8-trimethyl-1H-1,5-naphthyridin-2-one] | 6.15 mL/min/kg | 16.7 nM |
| Cc1c(N2CCC2)cnc2c(-c3ccc(F)c4[nH]ncc34)c(N)c(=O)[nH]c12 [Example 117, 3-Amino-7-(azetidin-1-yl)-4-(7-fluoro-1H-indazol-4-yl)-8-methyl-1H-1,5-naphthyridin-2-one] | 7.72 mL/min/kg | 14.9 nM |
| Cc1c(C#N)cnc2c(-c3ccc(F)c4[nH]ncc34)c(N)c(=O)[nH]c12 [Example 118, 7-Amino-8-(7-fluoro-1H-indazol-4-yl)-4-methyl-6-oxo-5H-1,5-naphthyridine-3-carbonitrile] | 6.15 mL/min/kg | 17.8 nM |
| Cc1c(-c2ccnnc2)cnc2c(-c3ccc(F)c4[nH]ncc34)c(N)c(=O)[nH]c12 [Example 120, 3-Amino-4-(7-fluoro-1H-indazol-4-yl)-8-methyl-7-pyridazin-4-yl-1H-1,5-naphthyridin-2-one] | 6.15 mL/min/kg | 17.2 nM |
| Cc1c(C2COC2)cnc2c(-c3ccc(F)c4[nH]ncc34)c(N)c(=O)[nH]c12 [Example 122, 3-Amino-4-(7-fluoro-1H-indazol-4-yl)-8-methyl-7-(oxetan-3-yl)-1H-1,5-naphthyridin-2-one] | 6.15 mL/min/kg | < 10 nM |
| Cc1c(C(C)(F)F)cnc2c(-c3ccc(F)c4[nH]ncc34)c(N)c(=O)[nH]c12 [Example 134, 3-Amino-7-(1,1-difluoroethyl)-4-(7-fluoro-1H-indazol-4-yl)-8-methyl-1H-1,5-naphthyridin-2-one] | 6.15 mL/min/kg | < 10 nM |

Reference: patent US20260078122A1, “INDAZOLE COMPOUNDS AS PKMYT1 KINASE INHIBITORS” (Hoffmann-La Roche Inc., priority 2023, published 2026)
